{"source": "patent US6696280B2", "about": "“Candida geranylgeranyl-protein transferase polypetide, compositions and methods related thereto” (GPC Biotech, Inc., priority 1996, dated 2004)", "key": {"PKC1 [1]": {"biological_target": "T1, PKC1 (Saccharomyces cerevisiae, UniProt P24583)", "T1 construct": "made in house; host or cells: PKC1-HA immunoprecipitated from S. cerevisiae extract; GST-Rho1 from baculovirus-infected Sf9 cells", "experiment": "PKC1 protein kinase assay with synthetic Bck1 peptide", "assay_type": "biochemical", "settings": "for Stimulation of PKC1 by cofactor: in the presence of GTP-bound GST-Rho1", "method": "(§1) FIGS. 4A-4B. Rho1 allows cofactors to activate PKC1. FIG. 4A. Phosphorylation of synthetic Bck1 peptide by PKC1^HA immunoprecipitated from 50 μg of soluble yeast cell extract protein. Recombinant GST-Rho1 or GST-Cdc42 (1 μg) was preloaded with the indicated guanine nucleotide. Cofactors (80 μg/ml PS, 8 μg/ml DAG, and 100 μM CaCl2) were added to the reaction where indicated. Lanes 1 and 2 are control reactions with no GTPase. Mean and standard error for three experiments is shown. FIG. 4B. PS alone is sufficient to stimulate PKC1 fully in the presence of Rho1. Phosphorylation of Bck1 peptide by PKC1^HA in the presence of GTPγS-bound GST-Rho1 and the indicated cofactors. Conditions were as in FIG. 4A, except for PMA (16 ng/ml). Concentrations of PS as low as 8 μg/ml fully activated PKC1 (data not shown).\n(§2) Yeast extract preparation, immunoprecipitation, immunodetection and protein kinase assays of Mpk1^HA were conducted as described previously (4). Preparation of cell extracts and immunoprecipitations for experiments with ^HARho1 were carried out as in (4) with some modifications. Lysis buffer without ρ-nitrophenyl phosphate and with 1% NP-40 was used. The extract (700 μg protein) was precleared by incubation with 20 μl of a 50% suspension of protein A-sepharose for 1 h prior to immunoprecipitation to eliminate non-specific binding of proteins to immunecomplexes. Beads were boiled in SDS-PAGE sample buffer, and samples were applied to 7.5% (for PKC1 blots) or 15% (for ^HARho1 blots) SDS-PAGE gels. For PKC1 kinase assays, all as described previously (5), except for the addition of recombinant GTPases (see below). A synthetic peptide corresponding to the sequence surrounding Ser939 of Bck1, a phosphorylation site for PKC 1, was used as substrate in PKC 1 kinase assays (5).\n(§3) Recombinant Rho1 and Cdc42. Recombinant GST-Rho 1 and GST-Cdc42 were expressed and purified from baculovirus-infected insect (Sf9) cells, as described (23). For in vitro association with PKC1^HA, GST-Rho1 was not eluted from the glutathione agarose beads used for purification. GST-Rho1-bound beads were incubated with cell extract in immunoprecipitation buffer (4) for 5 h at 4° C., followed by 3 washes with this buffer. For use in PKC1^HA protein kinase assays, GST-Rho1 and GST-Cdc42 were eluted from the beads with reduced glutathione.", "T1 sequence (P06780 2-206, one chain of several)": "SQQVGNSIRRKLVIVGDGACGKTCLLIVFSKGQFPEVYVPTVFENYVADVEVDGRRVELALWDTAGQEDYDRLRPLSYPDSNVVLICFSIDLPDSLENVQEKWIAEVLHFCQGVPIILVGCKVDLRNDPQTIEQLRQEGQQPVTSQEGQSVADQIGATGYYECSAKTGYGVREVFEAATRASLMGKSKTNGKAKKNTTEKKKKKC"}, "[2]": {"tested_on": "rho1 mutant strains YOC752 (rho1-2), YOC729 (rho1-3), YOC755 (rho1-5)", "experiment": "Drug sensitivity of conditional rho1 mutants", "assay_type": "cell-based, Saccharomyces cerevisiae", "settings": "23° C."}, "CaGGTase": {"tested_on": "CaGGTase", "experiment": "Km determination, prenylation (TCA precipitation) assay", "assay_type": "biochemical, Candida", "method": "Briefly, a DEAE FF column is used for the first chromatographic step. The fractions from the columns in the purification are assayed for both GGTase and Ftase. For GGTase, 0.2 μM CaRho and 0.5 μM GGPP are used. For the FTase assay, 0.5 μM N-ras and 0.5 μM FPP are used. Both reactions are for 20-30 minutes at 37° C. The GGTase activity and FTase activity overlapped on the intial chromatography step, although the FTase activity was slightly shifted to the later fractions. The majority of the GGTase activity is pooled and then run on a SourceQ column, which separates the FTase and GGTase activities.\nThe fractions from the columns in the purification are being assayed for both GGtase and FTase. For GGTase 0.2 uM CaRho and 0.5 uM GGPP are used. For the FTase assay 0.5 uM N-ras and 0.5 uM FPP are used. Both reactions are for 20-30 minutes at 37°.\nThe second column (20 mL) Source Q separated the FTase from the GGTase The salt gradient was stretched out for 10 column volumes and 3.5 mL fractions were collected. Fraction 16 and 17 were used for Km and IC50 studies by Marc P."}, "PKC1 [3]": {"biological_target": "T2, PKC1 (Saccharomyces cerevisiae, UniProt P24583)", "T2 construct": "made in house; host or cells: PKC1-HA immunoprecipitated from S. cerevisiae extract; GST-Rho1 from baculovirus-infected Sf9 cells", "T2 sequence (P24583 1-1151)": "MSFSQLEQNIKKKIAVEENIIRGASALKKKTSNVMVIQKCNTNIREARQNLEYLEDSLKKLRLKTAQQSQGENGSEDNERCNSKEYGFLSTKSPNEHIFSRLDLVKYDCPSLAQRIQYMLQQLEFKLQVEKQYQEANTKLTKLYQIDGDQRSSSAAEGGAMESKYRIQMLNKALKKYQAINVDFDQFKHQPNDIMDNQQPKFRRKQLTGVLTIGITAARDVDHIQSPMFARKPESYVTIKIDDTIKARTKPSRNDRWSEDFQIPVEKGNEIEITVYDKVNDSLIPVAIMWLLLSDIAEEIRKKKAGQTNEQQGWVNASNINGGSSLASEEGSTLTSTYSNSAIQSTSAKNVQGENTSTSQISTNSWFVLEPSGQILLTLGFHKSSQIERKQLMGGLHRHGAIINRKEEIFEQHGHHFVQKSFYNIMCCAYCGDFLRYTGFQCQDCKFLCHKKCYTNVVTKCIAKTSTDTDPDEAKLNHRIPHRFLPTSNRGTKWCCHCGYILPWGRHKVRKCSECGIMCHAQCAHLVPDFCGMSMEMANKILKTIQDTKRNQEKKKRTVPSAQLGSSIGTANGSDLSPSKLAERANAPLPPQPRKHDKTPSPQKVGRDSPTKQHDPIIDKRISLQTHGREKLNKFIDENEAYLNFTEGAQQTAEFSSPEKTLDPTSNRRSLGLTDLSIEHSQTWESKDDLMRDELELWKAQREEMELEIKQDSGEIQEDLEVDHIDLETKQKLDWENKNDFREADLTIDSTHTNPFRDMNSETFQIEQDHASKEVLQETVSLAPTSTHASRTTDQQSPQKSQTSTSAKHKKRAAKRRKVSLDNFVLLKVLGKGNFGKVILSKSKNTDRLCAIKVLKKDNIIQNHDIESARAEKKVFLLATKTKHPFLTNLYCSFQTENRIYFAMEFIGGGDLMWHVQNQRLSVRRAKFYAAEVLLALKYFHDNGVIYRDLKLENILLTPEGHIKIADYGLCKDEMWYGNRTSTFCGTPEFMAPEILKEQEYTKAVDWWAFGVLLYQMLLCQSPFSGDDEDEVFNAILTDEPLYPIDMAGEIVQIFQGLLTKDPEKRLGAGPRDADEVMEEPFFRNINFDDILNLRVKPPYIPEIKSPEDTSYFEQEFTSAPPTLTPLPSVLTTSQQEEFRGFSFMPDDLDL", "experiment": "PKC1 protein kinase assay with synthetic Bck1 peptide", "assay_type": "biochemical", "settings": "with or without cofactors PS, DAG, Ca2+", "method": "as §1, §2, §3"}, "1,3-β-glucan synthase": {"tested_on": "1,3-β-glucan synthase", "experiment": "Reconstitution of GS activity in rho1-3 membranes", "assay_type": "biochemical, Saccharomyces cerevisiae", "settings": "37° C., 1 μg recombinant GTPase, 50 μM GTPγS", "method": "FIGS. 6A-6C. GS activity from rho1 mutants (See reference of Example 3). FIG. 6A. GS activity is thermolabile in rho1^ts mutants. Crude extracts were made from cells growing at room temperature, and assayed for GS activity at the indicated temperatures in the presence of 50 μM GTPγS. FIG. 6B. Reconstitution of GS activity in rho 1-3 membranes with recombinant Rho1. GS activity in rho1-3 membrane fractions was measured at 37° C. in the presence of 1 μg of the indicated recombinant GTPase and 50 μM GTPγS (19). FIG. 6C. Reconstituted GS activity requires GTP. GS activity in wild-type membranes or rho1-3 membranes complemented with 1 μg of GST-Rho1 was measured at 37° C. in the presence of the indicated guanine nucleotide (20 μM). Results are expressed as percent activity relative to GTPγS.\n18. Crude yeast extracts were prepared as described [Y. Kamada et al., (1995) Genes Dev. 9:1559], and stored at −80° C. in lysis buffer supplemented with 33% glycerol. Membrane fractions, where indicated, were obtained from crude extracts and 1,3-β-glucan synthase (GS) activity was measured as described in (2) with the following modifications: UDP-[^3H]glucose was used as the substrate and α-amylase (1 U/40 μl) was added to reaction mixtures to eliminate the contribution of [^3H]glucose incorporation into glycogen. For all GS assays, the mean and standard error for four experiments is shown.\n19. […]"}}, "data": [{"compound": "diacylglycerol [DAG]", "values": [{"measurement": "Stimulation of PKC1 by cofactor", "setting": "PKC1 [1]", "result": "No additional stimulation"}]}, {"compound": "CCCCCCCCCCCCCC(=O)O[C@@H]1[C@@H](C)[C@@]2(O)[C@@H](C=C(CO)C[C@]3(O)C(=O)C(C)=C[C@@H]23)[C@@H]2C(C)(C)[C@]12OC(C)=O", "note": "[PMA, phorbol myristate acetate]", "values": [{"measurement": "Stimulation of PKC1 by cofactor", "setting": "PKC1 [1]", "result": "No additional stimulation"}]}, {"compound": "echinocandin B", "values": [{"measurement": "Sensitivity of rho1 mutants to drug", "setting": "[2]", "result": "hypersensitivity"}]}, {"compound": "O=S(=O)(O)c1cc(Nc2nc(Nc3ccccc3)nc(N(CCO)CCO)n2)ccc1/C=C/c1ccc(Nc2nc(Nc3ccccc3)nc(N(CCO)CCO)n2)cc1S(=O)(=O)O", "note": "[Calcofluor white]", "values": [{"measurement": "Sensitivity of rho1 mutants to drug", "setting": "[2]", "result": "hypersensitivity"}]}, {"compound": "[Ca+2]", "note": "[Ca^2+]", "values": [{"measurement": "Stimulation of PKC1 by cofactor", "setting": "PKC1 [1]", "result": "No additional stimulation"}]}, {"compound": "phosphatidylserine", "values": [{"measurement": "Stimulation of PKC1 by cofactor", "setting": "PKC1 [1]", "result": "strongly activated"}, {"measurement": "Concentration of PS that fully activated PKC1", "setting": "PKC1 [1]; in the presence of GTPγS-bound GST-Rho1, data not shown", "result": "≤ 8", "unit": "µg/mL"}]}, {"compound": "huRhoA: human RhoA GTPase, protein substrate", "values": [{"measurement": "Km Values", "setting": "CaGGTase", "result": "Nor is human RhoA a substrate"}]}, {"compound": "GST-Rho1: recombinant glutathione-S-transferase-Rho1 fusion purified from Sf9 insect cells", "values": [{"measurement": "Stimulation of PKC1 activity by recombinant GTPase", "setting": "PKC1 [3]", "result": "did not stimulate PKC1 activity alone"}, {"measurement": "Restoration of GS activity", "setting": "1,3-β-glucan synthase", "result": "restored fully"}]}]}
